Measured values reported in ChEMBL document CHEMBL1201862, “PubChem BioAssay data set” (2004).
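96-well plates; 48 h exposure; 5 concentrations. Endpoints by linear interpolation between flanking doses. Not reached: highest tested concentration assigned. Here, GI50 denotes the concentration required for 50% inhibition of growth.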 The source made the active and inactive calls. Cut-off read from the data, not from the text of the source: active = GI50 up to about 1.1 µM and inactive = higher.

Key:
Assay in all cases: inhibition of tumour cell growth, NCI panel, 48 h
786-0 = system: 786-0
BT-549 = system: BT-549
EKVX = system: EKVX
HCC 2998 = system: HCC 2998
HL-60 = system: HL-60
K562 = system: K562
MDA-MB-231 = system: MDA-MB-231
MDA-N = system: MDA-N
Malme-3M = system: Malme-3M
OVCAR-4 = system: OVCAR-4
OVCAR-5 = system: OVCAR-5
SF-268 = system: SF-268
SF-539 = system: SF-539
SK-MEL-2 = system: SK-MEL-2
SK-OV-3 = system: SK-OV-3
SNB-75 = system: SNB-75
SR = system: SR
U-251 = system: U-251
A498 = system: A498
SW-620 = system: SW-620

Compound: N#Cc1c(-c2ccc(F)cc2)c(-c2ccc(F)cc2)nn(CCO)c1=O
- GI50 (786-0): 0.421 µM (active)
- GI50 (BT-549): 0.879 µM (active)
- GI50 (EKVX): 0.47 µM (active)
- GI50 (HCC 2998): 0.605 µM (active)
- GI50 (HL-60): 0.091 µM (active)
- GI50 (K562): 0.103 µM (active)
- GI50 (MDA-MB-231): 0.661 µM (active)
- GI50 (MDA-N): 0.0492 µM (active)
- GI50 (Malme-3M): 0.743 µM (active)
- GI50 (OVCAR-4): 1.32 µM (inactive)
- GI50 (OVCAR-5): 1.82 µM (inactive)
- GI50 (SF-268): 0.875 µM (active)
- GI50 (SF-539): 0.198 µM (active)
- GI50 (SK-MEL-2): < 0.01 µM (active)
- GI50 (SK-OV-3): 0.288 µM (active)
- GI50 (SNB-75): 0.183 µM (active)
- GI50 (SR): 0.2 µM (active)
- GI50 (U-251): 0.178 µM (active)

Compound: C=C(Br)C/N=C/N(C)C
- GI50 (786-0): > 100 µM (inactive)
- GI50 (A498): > 100 µM (inactive)
- GI50 (BT-549): > 100 µM (inactive)
- GI50 (EKVX): > 100 µM (inactive)
- GI50 (HL-60): > 100 µM (inactive)
- GI50 (K562): > 100 µM (inactive)
- GI50 (MDA-MB-231): > 100 µM (inactive)
- GI50 (MDA-N): > 100 µM (inactive)
- GI50 (Malme-3M): > 100 µM (inactive)
- GI50 (OVCAR-4): > 100 µM (inactive)
- GI50 (OVCAR-5): > 100 µM (inactive)
- GI50 (SF-268): > 100 µM (inactive)
- GI50 (SF-539): > 100 µM (inactive)
- GI50 (SK-MEL-2): > 100 µM (inactive)
- GI50 (SK-OV-3): > 100 µM (inactive)
- GI50 (SNB-75): > 100 µM (inactive)
- GI50 (SR): > 100 µM (inactive)
- GI50 (U-251): > 100 µM (inactive)

Compound: O=C(O)C1CC(C2CCCCN2)CN2CCCCC12 (configuration not stated)
- GI50 (786-0): > 100 µM (inactive)
- GI50 (A498): > 100 µM (inactive)
- GI50 (BT-549): > 100 µM (inactive)
- GI50 (EKVX): > 100 µM (inactive)
- GI50 (HCC 2998): > 100 µM (inactive)
- GI50 (K562): > 100 µM (inactive)
- GI50 (MDA-MB-231): > 100 µM (inactive)
- GI50 (MDA-N): > 100 µM (inactive)
- GI50 (Malme-3M): > 100 µM (inactive)
- GI50 (OVCAR-4): > 100 µM (inactive)
- GI50 (OVCAR-5): > 100 µM (inactive)
- GI50 (SF-268): > 100 µM (inactive)
- GI50 (SF-539): 57.5 µM (inactive)
- GI50 (SK-MEL-2): > 100 µM (inactive)
- GI50 (SK-OV-3): > 100 µM (inactive)
- GI50 (SNB-75): > 100 µM (inactive)
- GI50 (SR): > 100 µM (inactive)
- GI50 (SW-620): > 100 µM (inactive)
- GI50 (U-251): > 100 µM (inactive)

Compound: Cc1nc2c(=O)[nH]c3ccc(Cl)cc3c2o1
- GI50 (786-0): > 100 µM (inactive)
- GI50 (A498): > 100 µM (inactive)
- GI50 (BT-549): > 100 µM (inactive)
- GI50 (EKVX): 69.7 µM (inactive)
- GI50 (HCC 2998): > 100 µM (inactive)
- GI50 (K562): > 100 µM (inactive)
- GI50 (MDA-MB-231): > 100 µM (inactive)
- GI50 (MDA-N): > 100 µM (inactive)
- GI50 (Malme-3M): > 100 µM (inactive)
- GI50 (OVCAR-4): > 100 µM (inactive)
- GI50 (OVCAR-5): > 100 µM (inactive)
- GI50 (SF-268): > 100 µM (inactive)
- GI50 (SF-539): > 100 µM (inactive)
- GI50 (SK-MEL-2): > 100 µM (inactive)
- GI50 (SK-OV-3): > 100 µM (inactive)
- GI50 (SNB-75): > 100 µM (inactive)
- GI50 (SR): > 100 µM (inactive)
- GI50 (SW-620): > 100 µM (inactive)
- GI50 (U-251): > 100 µM (inactive)

Compound: O=C1CS(=O)(=O)C(c2cccc(Oc3ccccc3)c2)N1c1ccc(Cl)cc1 (configuration not stated)
- GI50 (786-0): 16.5 µM (inactive)
- GI50 (BT-549): 24.7 µM (inactive)
- GI50 (EKVX): 11.5 µM (inactive)
- GI50 (HCC 2998): 3.4 µM (inactive)
- GI50 (HL-60): 24.2 µM (inactive)
- GI50 (K562): 14.5 µM (inactive)
- GI50 (MDA-MB-231): 31.4 µM (inactive)
- GI50 (MDA-N): 16.8 µM (inactive)
- GI50 (Malme-3M): 25.4 µM (inactive)
- GI50 (OVCAR-4): 22.8 µM (inactive)
- GI50 (OVCAR-5): 25.1 µM (inactive)
- GI50 (SF-268): 25.1 µM (inactive)
- GI50 (SF-539): 19.5 µM (inactive)
- GI50 (SK-MEL-2): 15.2 µM (inactive)
- GI50 (SK-OV-3): 49 µM (inactive)
- GI50 (SNB-75): 28 µM (inactive)
- GI50 (SR): 10.6 µM (inactive)
- GI50 (SW-620): 30 µM (inactive)
- GI50 (U-251): 19.1 µM (inactive)

Compound: CCCCCCC(O)C(O)CCC(O)C1CCC(CCCCC(O)CC2=CC(C)OC2=O)O1 (configuration not stated) [ACETOGENINS]
- GI50 (786-0): 6.58 µM (inactive)
- GI50 (A498): 17.5 µM (inactive)
- GI50 (BT-549): 23.4 µM (inactive)
- GI50 (EKVX): 1.92 µM (inactive)
- GI50 (HCC 2998): 15.9 µM (inactive)
- GI50 (K562): 1.82 µM (inactive)
- GI50 (MDA-MB-231): 1.2 µM (inactive)
- GI50 (MDA-N): 2.32 µM (inactive)
- GI50 (Malme-3M): 17 µM (inactive)
- GI50 (OVCAR-4): 17.5 µM (inactive)
- GI50 (OVCAR-5): 8.3 µM (inactive)
- GI50 (SF-268): 2.06 µM (inactive)
- GI50 (SF-539): 4.29 µM (inactive)
- GI50 (SK-MEL-2): 2.99 µM (inactive)
- GI50 (SNB-75): 2.69 µM (inactive)
- GI50 (SR): 1.69 µM (inactive)
- GI50 (SW-620): 4.04 µM (inactive)
- GI50 (U-251): 3.54 µM (inactive)

Compound: Cc1cc(=O)oc2c3c(ccc12)OC(c1ccc(Br)cc1)CC3=O (configuration not stated)
- GI50 (786-0): 5.48 µM (inactive)
- GI50 (BT-549): 3.03 µM (inactive)
- GI50 (EKVX): 15.1 µM (inactive)
- GI50 (HCC 2998): 14.6 µM (inactive)
- GI50 (K562): 2.83 µM (inactive)
- GI50 (MDA-MB-231): 7.35 µM (inactive)
- GI50 (MDA-N): 8.13 µM (inactive)
- GI50 (Malme-3M): 6.43 µM (inactive)
- GI50 (OVCAR-4): 26.5 µM (inactive)
- GI50 (OVCAR-5): 16.3 µM (inactive)
- GI50 (SF-268): 10.2 µM (inactive)
- GI50 (SF-539): 9.98 µM (inactive)
- GI50 (SK-MEL-2): 11.3 µM (inactive)
- GI50 (SK-OV-3): 8.15 µM (inactive)
- GI50 (SNB-75): 3.02 µM (inactive)
- GI50 (SR): 3.23 µM (inactive)
- GI50 (SW-620): 4.2 µM (inactive)
- GI50 (U-251): 5.9 µM (inactive)

Compound: O=C(CNc1ccccn1)Nn1cnc2ccc(S(=O)(=O)Nc3ccccn3)cc2c1=O
- GI50 (786-0): > 100 µM (inactive)
- GI50 (BT-549): > 100 µM (inactive)
- GI50 (EKVX): > 100 µM (inactive)
- GI50 (HCC 2998): > 100 µM (inactive)
- GI50 (HL-60): > 100 µM (inactive)
- GI50 (K562): > 100 µM (inactive)
- GI50 (MDA-MB-231): > 100 µM (inactive)
- GI50 (MDA-N): > 100 µM (inactive)
- GI50 (Malme-3M): > 100 µM (inactive)
- GI50 (OVCAR-4): > 100 µM (inactive)
- GI50 (OVCAR-5): > 100 µM (inactive)
- GI50 (SF-268): > 100 µM (inactive)
- GI50 (SF-539): > 100 µM (inactive)
- GI50 (SK-MEL-2): > 100 µM (inactive)
- GI50 (SK-OV-3): > 100 µM (inactive)
- GI50 (SNB-75): > 100 µM (inactive)
- GI50 (SR): > 100 µM (inactive)
- GI50 (SW-620): > 100 µM (inactive)
- GI50 (U-251): > 100 µM (inactive)

Compound: CC(=O)N1C(Nc2cccc3nc(C)ccc23)CCN1c1ccccc1 (configuration not stated)
- GI50 (786-0): > 10 µM (inactive)
- GI50 (BT-549): > 10 µM (inactive)
- GI50 (EKVX): > 10 µM (inactive)
- GI50 (HCC 2998): > 10 µM (inactive)
- GI50 (HL-60): 8.2 µM (inactive)
- GI50 (K562): > 10 µM (inactive)
- GI50 (MDA-MB-231): > 10 µM (inactive)
- GI50 (MDA-N): > 10 µM (inactive)
- GI50 (Malme-3M): > 10 µM (inactive)
- GI50 (OVCAR-4): > 10 µM (inactive)
- GI50 (OVCAR-5): > 10 µM (inactive)
- GI50 (SF-268): > 10 µM (inactive)
- GI50 (SF-539): > 10 µM (inactive)
- GI50 (SK-MEL-2): > 10 µM (inactive)
- GI50 (SK-OV-3): > 10 µM (inactive)
- GI50 (SNB-75): > 10 µM (inactive)
- GI50 (SR): 7.19 µM (inactive)
- GI50 (SW-620): 5.73 µM (inactive)

Compound: CC1=CC(=O)/C(=C/n2c(=S)[nH]c3ccc([N+](=O)[O-])cc32)C(=O)O1
- GI50 (786-0): > 100 µM (inactive)
- GI50 (BT-549): > 100 µM (inactive)
- GI50 (EKVX): > 50.1 µM (inactive)
- GI50 (HCC 2998): > 100 µM (inactive)
- GI50 (HL-60): 2.09 µM (inactive)
- GI50 (K562): > 100 µM (inactive)
- GI50 (MDA-MB-231): > 100 µM (inactive)
- GI50 (MDA-N): > 100 µM (inactive)
- GI50 (OVCAR-4): > 100 µM (inactive)
- GI50 (OVCAR-5): > 100 µM (inactive)
- GI50 (SF-268): > 100 µM (inactive)
- GI50 (SF-539): > 100 µM (inactive)
- GI50 (SK-MEL-2): > 100 µM (inactive)
- GI50 (SK-OV-3): > 100 µM (inactive)
- GI50 (SNB-75): > 100 µM (inactive)
- GI50 (SR): > 100 µM (inactive)
- GI50 (SW-620): > 100 µM (inactive)
- GI50 (U-251): > 100 µM (inactive)

Compound: CC(=O)c1cccn1/C=C(\OC(=O)OC(C)(C)C)c1ccc[nH]1
- GI50 (786-0): > 100 µM (inactive)
- GI50 (A498): 34.8 µM (inactive)
- GI50 (BT-549): 60.7 µM (inactive)
- GI50 (EKVX): 25.5 µM (inactive)
- GI50 (HCC 2998): > 100 µM (inactive)
- GI50 (HL-60): 31 µM (inactive)
- GI50 (K562): 59.6 µM (inactive)
- GI50 (MDA-MB-231): 73.8 µM (inactive)
- GI50 (MDA-N): 81.8 µM (inactive)
- GI50 (Malme-3M): > 100 µM (inactive)
- GI50 (OVCAR-4): 42 µM (inactive)
- GI50 (OVCAR-5): 51.2 µM (inactive)
- GI50 (SF-268): 77.3 µM (inactive)
- GI50 (SK-MEL-2): > 100 µM (inactive)
- GI50 (SNB-75): 8.24 µM (inactive)
- GI50 (SR): 31 µM (inactive)
- GI50 (SW-620): 83.9 µM (inactive)
- GI50 (U-251): 64.4 µM (inactive)
